Assay results reported in patent US5898069A, “Phosphate assay” (Medical Research Council, priority 1993, dated 1999).
Where “and” joins values, the source holds several entries; their conditions need not be identical. Equal entries are not always repeated. Where two headings read alike, the source gives them in different places.

Key:
MDCC-PBP [1] = target: T1, MDCC-PBP (Escherichia coli, UniProt P0AG82, A222C); type: binding, E. coli
T1 construct: A197 is located at position 197 numbering from the N-terminus of the mature PBP; made in house; host or cells: E. coli strain ANCC75, plasmid pSN5182/N, periplasm
T1 sequence (P0AG82 26-346 A222C): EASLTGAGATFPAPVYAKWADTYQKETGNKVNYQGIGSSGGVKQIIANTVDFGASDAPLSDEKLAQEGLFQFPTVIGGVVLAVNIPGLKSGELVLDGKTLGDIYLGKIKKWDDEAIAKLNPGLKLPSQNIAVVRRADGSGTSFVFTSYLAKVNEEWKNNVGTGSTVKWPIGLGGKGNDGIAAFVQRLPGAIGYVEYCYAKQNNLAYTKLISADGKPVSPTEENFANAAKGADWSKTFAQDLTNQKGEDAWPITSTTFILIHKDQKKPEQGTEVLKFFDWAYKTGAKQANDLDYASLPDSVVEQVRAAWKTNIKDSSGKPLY
Description: The Pi dependent fluorescence change was measured for a variety of conditions at a single concentration of Pi (Table 2).
(§1) The solutions contained 2 μM MDCCPBP (except for [b] 10 μM and [c]
The fluorescence change was measured at 465 nm with excitation at
[a] The solution was preincubated with the Pi mop.

CPM-PBP = target: T2, CPM-PBP (Escherichia coli, UniProt P0AG82, A222C); type: binding, E. coli
T2 construct: A197 is located at position 197 numbering from the N-terminus of the mature PBP; made in house; host or cells: E. coli strain ANCC75, plasmid pSN5182/N, periplasm
T2 sequence (P0AG82 26-346 A222C): as above
Description: Analysis of the effects of Pi analogues and solution composition was performed as for MDCC-PBP.

PBP mutant D292C = target: T3, PBP mutant D292C (Escherichia coli, UniProt P0AG82, D317C); type: binding, E. coli
T3 construct: from the Nterminus of the mature protein; made in house; host or cells: E. coli strain ANCC75, plasmid pSN5182/N, periplasm
T3 sequence (P0AG82 26-346 D317C): as the sequence (P0AG82 26-346 A222C) above, with C197A, D292C counted along it
Text: (e) Using the Pi mop, the fluorescence change was 65%.

[2] = system: purine nucleoside phosphorylase; assay: Phosphorolysis of 7-methyl guanosine by purine nucleoside phosphorylase (Pi mop), absorbance change at 260 nm; type: biochemical, bacterial; conditions: pH 8.0, 20 mM Tris.HCl, 1 μM MgCl2, 30° C.
MDCC-PBP [3] = target: T1, MDCC-PBP; assay: Titration of arsenate in a solution of MDCC-PBP (fluorescence change); type: binding, E. coli; conditions: read-out: dissociation constant
Text: (§2) Because very small levels of Pi contamination can affect the observed change on adding Pi and because of variability in the protein activity, the maximum percent increase of fluorescence varies from 400-500%0 Although PBP is very specific for Pi (Luecke & Quiocho, 1990), it was to be used as a probe in the presence of other phosphate species, such as esters or purine nucleotides and so it was important to know at what levels these might interfere with Pi measurements. Several Pi analogues were also tested (Table 2) and only arsenate and vanadate produced significant increases. For a titration of arsenate in a solution of MDCC-PBP, the fluorescence change was used to obtain a dissociation constant of 3 μM. In all cases except arsenate, when subsequently Pi was added, the full fluorescent change was observed. The Pi dependent fluorescence change was measured for a variety of conditions at a single concentration of Pi (Table 2). The change is only slightly affected by pH (7-8) or ionic strength.

[4] = Pi dependent fluorescence change of labelled PBP in various solution compositions; type: binding; conditions: for % fluorescence increase: 100 μM Pi added
Description: 3.2 μM MDCC-PBP was in 10 mM PIPES, 1 mM MgCl2 (pH 7.0) at 22° C. Pi was added to 50 μM;
as §2, §1
3.2 μM) in 20 mM PIPES (pH 7.0) except where indicated. The solutions
in B had 100 μM Pi added to produce the indicated fluorescence
change. […]

[5] = Fluorescence titration of Pi to labelled PBP to obtain the dissociation constant; type: binding; conditions: for Kd: approximate
Description: The solution at 20° C. contained […] MDCC-PBP, 1 mM MgCl2, 10 mM PIPES pH 7.0. Aliquots of Pi were added and the fluorescence emission was measured at 465 nm with excitation at 425 nm. The data was corrected for the small amount of dilution;
The solution at 25° C. in 10 mM PIPES, pH 7.0, 1 mM MgCl2 contained 0.28 μM MDCC-PBP. Aliquots of Pi were added and the fluorescence emission was measured as in FIG. 3.
The fluorescence titrations of Pi with CPM-PBP (and MDCC-PBP) were fitted to the following equations using Enzfitter software:
Ratio of fluorescence at a given [Pi ] to that at zero Pi =(Q[Ep ]+[E]-[Ep ])/[E] where
[E ]P=([P]+[E]+K-√(([P]+[E]+K)^2 -4[P][E]))/2
[E]=concentration of CPM-PBP
Q=ratio of fluorescence for CPM-PBP.Pi to that for the unliganded CPM-PBP
The product was characterized in several ways. […] The dissociation constant was determined by titrating Pi at low [MDCC-PBP] and measuring fluorescence (FIG. 4). […] Because Pi binding is very tight, these dissociation constants can be considered only approximate: the fluorescence titration could not be done at sufficiently low concentrations to obtain accurate values of Kd.

[6] = Stopped-flow kinetics of Pi binding to labelled PBP and its release
Description: A. 0.1 μM MDCC-PBP (mixing chamber concentration) in 10 mM PIPES, pH 7.0 was rapidly mixed at 21° C. with different concentrations of Pi in this buffer in a stopped flow apparatus, while fluorescence emission was monitored using a 455 nm cut-off filter, with excitation at 436 nm using a mercury lamp. The curve show a time course with 0.25 μM Pi. […] The best-fit single exponential (65.3 s^-1) is shown by the dashed line, almost completely hidden by the experimental curve.
B. The release kinetics were measured by rapidly mixing 0.125 μM Pi, 0.25 μM MDCC-PBP with 10 μM wild-type PBP (mixing chamber concentrations) at 22° C. Other conditions were as above The best-fit single exponential (21.4 s^-1) is shown by the dashed line, almost completely hidden by the experimental curve;
In order to use the probe to measure Pi release from ATPases and GTPases in real time it was important to know the kinetics of Pi interaction with the labeled protein. Because of the fast rates only part of the exponential is observed: a significant proportion of the reaction occurs during the dead time of the instrument (i.e. the time taken for the solution to flow between mixing and the observation chamber).
The dissociation rate of the MDCC-PBP.Pi complex was measured directly in the stopped flow apparatus by rapid mixing of this complex with excess wild-type PBP. Pi is released from the fluorescent complex and binds to the wild-type protein with a rate constant limited by the rate of release (FIG. 6B). The observed rate was 21.3±0.1 (S.E.M.) s^-1 (22° C., […], pH 7.0) for wild-type concentrations from 1.25 to 10 μM, with 0.25 μM MDCC-PBP and 0.125 μM Pi. Because this rate is constant over a range of wild-type concentrations and because the rate is much slower than that expected for Pi binding, assuming the wild-type PBP has similar rate constant to the MDCC-PBP, the observed rate constant probably represents Pi release.

[7] = Storage stability of labelled protein; type: physicochemical
Text: The Pi -sensitive labeled mutant, MDCC-PBP was purified further and tested as described in the Experimental Procedures to show it was a singly-labeled protein with no unlabeled protein or unbound fluorophore. The further purification is important as the unlabeled protein will also bind Pi. Unbound fluorophore would reduce the percentage fluorescence change by increasing the background and it might also slowly react with or bind to other components in the experimental system. The ion exchange chromatography separated MDCC-PBP completely from unlabeled PBP and unbound fluorophore. Thus the final labeled protein has a ratio of absorbance maxima, 280/430 nm of 1.8. The fluorescence excitation maximum is 425 nm and the emission maximum is 474 nm and the fluorescence change with excess Pi at pH 7.0 for the conditions in FIG. 2 is 5.3-fold with a shift of maximum emission to 464 nm. The labeled protein could be stored at […] and was stable on ice for at least 5 days.

[8] = Competition titration of MDCC-PBP.Pi with wild-type PBP; type: binding
[9] = addition 100 μM, preincubated with the Pi mop, 2 μM MDCC-PBP, 20 mM PIPES pH 7.0
[10] = addition 100 μM, 6 μM CPM-PBP, 10 mM Tris.HCl pH 8.0
[11] = addition 1 mM, 6 μM CPM-PBP, 10 mM Tris.HCl pH 8.0
[12] = addition 100 μM, 2 μM MDCC-PBP, 20 mM PIPES pH 7.0

## Nc1ncnc2c1ncn2[C@@H]1O[C@H](COP(=O)(O)OP(=O)(O)O)[C@@H](O)[C@H]1O [ADP]
MDCC-PBP [1]; [9]
  % fluorescence increase: 3%
CPM-PBP; [10]
  % fluorescence increase: 4%

## Nc1ncnc2c1ncn2[C@@H]1O[C@H](COP(=O)(O)OP(=O)(O)OP(=O)(O)O)[C@@H](O)[C@H]1O [ATP]
MDCC-PBP [1]; addition 100 μM, preincubated with the Pi mop, 10 μM MDCC-PBP, 20 mM PIPES pH 7.0
  % fluorescence increase: 2%
MDCC-PBP [1]; addition 1 mM, preincubated with the Pi mop, 10 μM MDCC-PBP, 20 mM PIPES pH 7.0
  % fluorescence increase: 11%
CPM-PBP; [10]
  % fluorescence increase: 5%
CPM-PBP; [11]
  % fluorescence increase: 13%

## Nc1nc2c(ncn2[C@@H]2O[C@H](COP(=O)(O)OP(=O)(O)O)[C@@H](O)[C@H]2O)c(=O)[nH]1 [GDP]
MDCC-PBP [1]; [9]
  % fluorescence increase: 3%
CPM-PBP; [10]
  % fluorescence increase: 5%

## O=P(O)(O)OC[C@H]1OC(O)[C@H](O)[C@@H](O)[C@@H]1O (stereo partly shown) [Glucose-6-phosphate]
MDCC-PBP [1]; [9]
  % fluorescence increase: 3%
CPM-PBP; [10]
  % fluorescence increase: 4%

## O=C1C=CC(=O)N1c1ccc(Nc2ccc3cc(S(=O)(=O)O)ccc3c2)cc1 [MIANS, 2[4(1-maleimidyl)anilino]naphthalene6-sulfonic acid]
PBP mutant D292C
  fluorescence change using the Pi mop: 65%

## CC(OP(=O)(O)OP(=O)(O)OP(=O)(O)OC[C@H]1O[C@@H](n2cnc3c(N)ncnc32)[C@H](O)[C@@H]1O)c1ccccc1[N+](=O)[O-] (stereo partly shown) [NPE-caged ATP, P^31-(2-nitrophenyl)ethyl ATP]
MDCC-PBP [1]; addition 5 mM, preincubated with the Pi mop, 10 μM MDCC-PBP, 20 mM PIPES pH 7.0
  % fluorescence increase: 0%

## O=P(O)(O)O [Pi, inorganic phosphate]
MDCC-PBP [1]; pH 7
  % fluorescence increase: 430%
CPM-PBP; pH 8
  % fluorescence increase: 65%
[2]
  Km: 34 µM

## O=P(O)(O)OP(=O)(O)O [Pyrophosphate]
MDCC-PBP [1]; pH 7
  % fluorescence increase: 6%
CPM-PBP; pH 8
  % fluorescence increase: 5%

## O=[As]([O-])([O-])O.[Na+].[Na+] [Sodium arsenate]
MDCC-PBP [1]; [12]
  % fluorescence increase: 313%
MDCC-PBP [3]
  Kd: 3000 nM
CPM-PBP; [10]
  % fluorescence increase: 25%

## O=S(=O)([O-])[O-].[Na+].[Na+] [Sodium sulphate]
MDCC-PBP [1]; addition 1 mM, 2 μM MDCC-PBP, 20 mM PIPES pH 7.0
  % fluorescence increase: 3%
CPM-PBP; [11]
  % fluorescence increase: 0%

## Sodium vanadate
MDCC-PBP [1]; [12]
  % fluorescence increase: 35%
CPM-PBP; [10]
  % fluorescence increase: -2%
CPM-PBP; addition 1.1 mM, 6 μM CPM-PBP, 10 mM Tris.HCl pH 8.0
  % fluorescence increase: -11%

B1: MDCC-PBP (conjugate, UniProt P0AG82 26-346, looked up)
Phosphate-binding protein PstS: EASLTGAGATFPAPVYAKWADTYQKETGNKVNYQGIGSSGGVKQIIANTVDFGASDAPLSDEKLAQEGLFQFPTVIGGVVLAVNIPGLKSGELVLDGKTLGDIYLGKIKKWDDEAIAKLNPGLKLPSQNIAVVRRADGSGTSFVFTSYLAKVNEEWKNNVGTGSTVKWPIGLGGKGNDGIAAFVQRLPGAIGYVEYAYAKQNNLAYTKLISADGKPVSPTEENFANAAKGADWSKTFAQDLTNQKGEDAWPITSTTFILIHKDQKKPEQGTEVLKFFDWAYKTGAKQANDLDYASLPDSVVEQVRAAWKTNIKDSSGKPLY
modifications: MDCC fluorophore label
[4]; 10 mM PIPES (pH 7.0), 1M NaCl, 3.2 μM MDCC-PBP
  % fluorescence increase: 350%
[4]; 10 mM PIPES (pH 7.0), 2 μM MDCC-PBP
  % fluorescence increase: 430%
[4]; 10 mM Tris-HCl (pH 8.0), 2 μM MDCC-PBP
  % fluorescence increase: 405%
[4]; pH 7.0, FIG. 2: 3.2 μM MDCC-PBP, 10 mM PIPES, 1 mM MgCl2, 22° C., Pi 50 μM
  fluorescence change with excess Pi: 5.3 fold
[4]; varies with Pi contamination and protein activity
  maximum percent increase of fluorescence: 400-500%
[5]; FIG. 3, 20° C., 1 mM MgCl2, 10 mM PIPES pH 7.0
  protein active (from linear fluorescence response to Pi): 75-80%
[5]; FIG. 4, 25° C., 10 mM PIPES pH 7.0, 1 mM MgCl2, 0.28 μM MDCC-PBP
  maximum fluorescence enhancement: 415%
[5]; pH7.0
  Kd: 30 nM
[5]; pH 8.0
  Kd: 80 nM
[6]; 0.1 μM MDCC-PBP, 0.25 μM Pi, 10 mM PIPES pH 7.0, 21° C.
  Pi binding, best-fit single exponential: 65.3 s⁻¹
[6]; 22° C., PIPES pH 7.0, 0.25 μM MDCC-PBP, 0.125 μM Pi mixed with excess wild-type PBP (1.25 to 10 μM)
  dissociation (Pi release) rate of labelled PBP.Pi complex: 21.3 ± 0.1 s⁻¹ and 21.4 s⁻¹
[6]; pH 7.0, [Pi]<5μM
  k+ (Pi binding rate constant, one step binding model): 1.36e+08 M⁻¹ s⁻¹
[6]; pH 7.0, [Pi]<5μM, prone to error
  k- (from fit of observed binding rates): 43 s⁻¹
[7]
  stable on ice: at least 5 days

B2: wild-type PBP: E. coli phosphate binding protein (PBP), unlabelled wild-type (protein, UniProt P0AG82 26-346, looked up)
Phosphate-binding protein PstS: EASLTGAGATFPAPVYAKWADTYQKETGNKVNYQGIGSSGGVKQIIANTVDFGASDAPLSDEKLAQEGLFQFPTVIGGVVLAVNIPGLKSGELVLDGKTLGDIYLGKIKKWDDEAIAKLNPGLKLPSQNIAVVRRADGSGTSFVFTSYLAKVNEEWKNNVGTGSTVKWPIGLGGKGNDGIAAFVQRLPGAIGYVEYAYAKQNNLAYTKLISADGKPVSPTEENFANAAKGADWSKTFAQDLTNQKGEDAWPITSTTFILIHKDQKKPEQGTEVLKFFDWAYKTGAKQANDLDYASLPDSVVEQVRAAWKTNIKDSSGKPLY
[8]
  relative affinity for Pi versus the labeled mutant (MDCC-PBP): two-fold tighter
